Source: patent US9676789B2, “Aminated derivative of homoharringtonine, preparation method therefor, and application thereof” (HANGZHOU BENSHENG PHARMACEUTICAL CO., LTD., priority 2011, dated 2017)
Converted amounts (≈) assume the structure as drawn.

What was measured:
[1] = test system: PANC-1 (pancreatic cancer); assay: MTT solid tumor cell growth inhibition, 72 h; assay type: cell-based, human; details: Homo sapiens, PANC-1, 72 h; for IC50: read-out: IC50; for IC90: read-out: IC90
Method in brief: (§1)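 Percent cell viability comes from the MTT method, normalised to untreated control wells as 100%. Compounds at varying concentrations were left on the cells for 72 h after a 24 h settling period, with 4000 cells seeded per well in 10% FBS-supplemented DMEM high glucose.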

[2] = test system: U87 MG (malignant glioma cell); assay: MTT solid tumor cell growth inhibition, 72 h; assay type: cell-based, human; details: Homo sapiens, U-87 MG; for IC50: read-out: IC50; for IC90: read-out: IC90
Method in brief: as §1

MG63 (osteosarcoma) = assay: MTT solid tumor cell growth inhibition, 72 h; assay type: cell-based, human; details: Homo sapiens, MG 63, 72 h; for IC50: read-out: IC50; for IC90: read-out: IC90
Method in brief: as §1

[3] = test system: RPMI8226 (multiple myeloma); assay: MTT multiple myeloma cell growth inhibition, 72 h; assay type: cell-based, human; details: Homo sapiens, RPMI-8226, RPMI8226, 72 h; for IC50: read-out: IC50; for IC90: read-out: IC90
Method in brief: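 Viability determined by MTT after 72 h of compound exposure at 37° C under 5% CO2. Myeloma RPMI8226 cells were seeded at 6000 per well in 1640 medium containing 10% fetal bovine serum.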

[4] = test system: NB4 (acute promyelocytic leukemia, AML); assay: MTT leukemia cell growth inhibition, 72 h; assay type: cell-based, human; details: Homo sapiens, NB4, 72 h; for IC50: read-out: IC50; for IC90: read-out: IC90
Method in brief: (§2)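 Using 6000 leukemia cells per well in 1640 medium supplemented with 10% fetal bovine serum, homoharringtonine derivatives at different concentrations were applied for 72 h, then viability was assessed by MTT.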

[5] = test system: Kasumi-1 (acute myeloid leukemia M2 type, AML-M2); assay: MTT leukemia cell growth inhibition, 72 h; assay type: cell-based, human; details: Homo sapiens, Kasumi-1, 72 h; for IC50: read-out: IC50; for IC90: read-out: IC90
Method in brief: as §2

[6] = test system: K562/adr (drug-resistant, chronic myeloid leukemia, CML); assay: MTT leukemia cell growth inhibition, 72 h; assay type: cell-based, human; details: Homo sapiens, K562/Adr; for IC50: read-out: IC50; for IC90: read-out: IC90
Method in brief: as §2

[7] = test system: H9 (acute lymphoblastic leukemia, ALL); assay: MTT leukemia cell growth inhibition, 72 h; assay type: cell-based, human; details: Homo sapiens, H9, 72 h; for IC50: read-out: IC50; for IC90: read-out: IC90
Method in brief: as §2

[8] = test system: Jurkat (acute lymphoblastic leukemia, ALL); assay: MTT leukemia cell growth inhibition, 72 h; assay type: cell-based, human; details: Homo sapiens; for IC50: read-out: IC50; for IC90: read-out: IC90
Method in brief: as §2

[9] = test system: RKO (human colon adenocarcinoma cell); assay: MTT solid tumor cell growth inhibition, 72 h; assay type: cell-based; details: Homo sapiens; for IC50: read-out: IC50; for IC90: read-out: IC90
Method in brief: as §1

[10] = test system: Huh7 (human liver cancer cell); assay: MTT solid tumor cell growth inhibition, 72 h; assay type: cell-based; details: Homo sapiens, Huh-7, Huh7, 72 h; for IC50: read-out: IC50; for IC90: read-out: IC90
Method in brief: as §1

[11] = test system: MGC 803 (human gastric cancer cell); assay: MTT solid tumor cell growth inhibition, 72 h; assay type: cell-based; details: Homo sapiens, MGC 803, 72 h; for IC50: read-out: IC50; for IC90: read-out: IC90
Method in brief: as §1

[12] = test system: Becap37 (human breast cancer cell); assay: MTT solid tumor cell growth inhibition, 72 h; assay type: cell-based; details: Homo sapiens, Becap37, 72 h; for IC50: read-out: IC50; for IC90: read-out: IC90
Method in brief: as §1

A549 (human lung cancer) = assay: MTT solid tumor cell growth inhibition, 72 h; assay type: cell-based; details: Homo sapiens, A549, 72 h; for IC50: read-out: IC50; for IC90: read-out: IC90
Method in brief: as §1

[13] = test system: CNE (nasopharyngeal carcinoma cell); assay: MTT solid tumor cell growth inhibition, 72 h; assay type: cell-based, human; details: Homo sapiens; for IC50: read-out: IC50; for IC90: read-out: IC90
Method in brief: as §1

PC-3 (prostate cancer) = assay: MTT solid tumor cell growth inhibition, 72 h; assay type: cell-based, human; details: Homo sapiens, PC-3, 72 h; for IC50: read-out: IC50; for IC90: read-out: IC90
Method in brief: as §1

[14] = test system: CaES-17 (esophageal cancer cell); assay: MTT solid tumor cell growth inhibition, 72 h; assay type: cell-based, human; details: Homo sapiens, CaEs17, CaES-17, 72 h; for IC50: read-out: IC50; for IC90: read-out: IC90
Method in brief: as §1

[15] = test system: SK-OV-3 (ovarian cancer cell); assay: MTT solid tumor cell growth inhibition, 72 h; assay type: cell-based, human; details: Homo sapiens, SK-OV-3, 72 h; for IC50: read-out: IC50; for IC90: read-out: IC90
Method in brief: as §1

[16] = test system: Hep-2 (human hepatocellular carcinoma); assay: MTT solid tumor cell growth inhibition, 72 h; assay type: cell-based; details: Homo sapiens, HEp-2, Hep2, 72 h; for IC50: read-out: IC50; for IC90: read-out: IC90
Method in brief: as §1

[17] = test system: Hela (human cervical cancer cell); assay: MTT solid tumor cell growth inhibition, 72 h; assay type: cell-based; details: Homo sapiens, HeLa; for IC50: read-out: IC50; for IC90: read-out: IC90
Method in brief: as §1

Row | SMILES | IC50 [1] | IC90 [1] | IC50 (MG63 (osteosarcoma)) | IC90 (MG63 (osteosarcoma)) | IC50 [3] | IC90 [3] | IC50 [4] | IC90 [4] | IC50 [5] | IC90 [5] | IC50 [6] | IC90 [6] | IC50 [7] | IC90 [7] | IC50 [8] | IC90 [8] | IC50 [9] | IC90 [9] | IC50 [10] | IC90 [10] | also measured
1 | COC1=C[C@]23CCCN2CCc2cc4c(cc2[C@@H]3[C@@H]1OC(=O)[C@@](O)(CCCC(C)(C)O)CC(=O)NCc1cccs1)OCO4 [BS-HH-055] | 8 µg/mL (≈ 12.8 µM) | > 16 µg/mL | 3.83 µg/mL (≈ 6.11 µM) | 16 µg/mL (≈ 25.5 µM) | 2.1 µg/mL (≈ 3.35 µM) | 16 µg/mL (≈ 25.5 µM) | 2.38 µg/mL (≈ 3.8 µM) | 7.61 µg/mL (≈ 12.1 µM) | 1.3 µg/mL (≈ 2.07 µM) | 6.68 µg/mL (≈ 10.7 µM) | 6.24 µg/mL (≈ 9.96 µM) | 16 µg/mL (≈ 25.5 µM) | 4 µg/mL (≈ 6.38 µM) | 10.6 µg/mL (≈ 17 µM) | 1.58 µg/mL (≈ 2.52 µM) | 8 µg/mL (≈ 12.8 µM) | 2.75 µg/mL (≈ 4.39 µM) | 6.97 µg/mL (≈ 11.1 µM) | 4.83 µg/mL (≈ 7.71 µM) | > 16 µg/mL | IC50 [2]: 6.54 µg/mL (≈ 10.4 µM); IC90 [2]: > 16 µg/mL; IC50 [11]: 6.06 µg/mL (≈ 9.67 µM); IC90 [11]: 19 µg/mL (≈ 30.3 µM); IC50 [12]: 5.9 µg/mL (≈ 9.41 µM); IC90 [12]: > 16 µg/mL; IC50 (A549 (human lung cancer)): 11.2 µg/mL (≈ 17.9 µM); IC90 (A549 (human lung cancer)): > 16 µg/mL
2 | COC1=C[C@]23CCCN2CCc2cc4c(cc2[C@@H]3[C@@H]1OC(=O)[C@@](O)(CCCC(C)(C)O)CC(=O)N1CCN(C(C)C)CC1)OCO4 [BS-HH-034] | 1.94 µg/mL (≈ 3.02 µM) | > 16 µg/mL | 0.32 µg/mL (≈ 0.499 µM) | 16 µg/mL (≈ 24.9 µM) | 0.47 µg/mL (≈ 0.732 µM) | 3.72 µg/mL (≈ 5.8 µM) | 0.48 µg/mL (≈ 0.748 µM) | 2.3 µg/mL (≈ 3.58 µM) | 0.31 µg/mL (≈ 0.483 µM) | 1.77 µg/mL (≈ 2.76 µM) | 4.53 µg/mL (≈ 7.06 µM) | 16 µg/mL (≈ 24.9 µM) | 0.6 µg/mL (≈ 0.935 µM) | 2.7 µg/mL (≈ 4.21 µM) | 0.46 µg/mL (≈ 0.717 µM) | 16 µg/mL (≈ 24.9 µM) | 0.18 µg/mL (≈ 0.28 µM) | 1.25 µg/mL (≈ 1.95 µM) | 1.05 µg/mL (≈ 1.64 µM) | > 16 µg/mL | IC50 [13]: 0.49 µg/mL (≈ 0.763 µM); IC90 [13]: 16 µg/mL (≈ 24.9 µM); IC50 (PC-3 (prostate cancer)): 0.91 µg/mL (≈ 1.42 µM); IC90 (PC-3 (prostate cancer)): > 16 µg/mL; IC50 [14]: 1.91 µg/mL (≈ 2.98 µM); IC90 [14]: 16 µg/mL (≈ 24.9 µM); IC50 [2]: 0.89 µg/mL (≈ 1.39 µM); IC90 [2]: 5.74 µg/mL (≈ 8.94 µM); IC50 [15]: 2.81 µg/mL (≈ 4.38 µM); IC90 [15]: > 16 µg/mL; IC50 [16]: 1.29 µg/mL (≈ 2.01 µM); IC90 [16]: > 16 µg/mL; IC50 [11]: 0.81 µg/mL (≈ 1.26 µM); IC90 [11]: 11.8 µg/mL (≈ 18.4 µM); IC50 [12]: 0.81 µg/mL (≈ 1.26 µM); IC90 [12]: > 16 µg/mL; IC50 (A549 (human lung cancer)): 1.74 µg/mL (≈ 2.71 µM); IC90 (A549 (human lung cancer)): > 16 µg/mL; IC50 [17]: 1.97 µg/mL (≈ 3.07 µM); IC90 [17]: > 16 µg/mL
3 | COC1=C[C@]23CCCN2CCc2cc4c(cc2[C@@H]3[C@@H]1OC(=O)[C@@](O)(CCCC(C)(C)O)CC(=O)N1CCN(c2ccccn2)CC1)OCO4 [BS-HH-044] | 1.91 µg/mL (≈ 2.82 µM) | > 16 µg/mL | 0.8 µg/mL (≈ 1.18 µM) | > 16 µg/mL | 0.48 µg/mL (≈ 0.709 µM) | 3.36 µg/mL (≈ 4.96 µM) | 0.25 µg/mL (≈ 0.369 µM) | 0.64 µg/mL (≈ 0.946 µM) | 0.38 µg/mL (≈ 0.561 µM) | 2.25 µg/mL (≈ 3.32 µM) | 5.18 µg/mL (≈ 7.65 µM) | 16 µg/mL (≈ 23.6 µM) | 1.41 µg/mL (≈ 2.08 µM) | 16 µg/mL (≈ 23.6 µM) | 0.48 µg/mL (≈ 0.709 µM) | 16 µg/mL (≈ 23.6 µM) | 0.16 µg/mL (≈ 0.236 µM) | 2.37 µg/mL (≈ 3.5 µM) | 0.94 µg/mL (≈ 1.39 µM) | > 16 µg/mL | IC50 [13]: 0.76 µg/mL (≈ 1.12 µM); IC90 [13]: > 16 µg/mL; IC50 (PC-3 (prostate cancer)): 0.78 µg/mL (≈ 1.15 µM); IC90 (PC-3 (prostate cancer)): > 16 µg/mL; IC50 [14]: 1.63 µg/mL (≈ 2.41 µM); IC90 [14]: 16 µg/mL (≈ 23.6 µM); IC50 [2]: 0.64 µg/mL (≈ 0.946 µM); IC90 [2]: 16 µg/mL (≈ 23.6 µM); IC50 [15]: 3.97 µg/mL (≈ 5.87 µM); IC90 [15]: > 16 µg/mL; IC50 [16]: 1.23 µg/mL (≈ 1.82 µM); IC90 [16]: > 16 µg/mL; IC50 [11]: 0.74 µg/mL (≈ 1.09 µM); IC90 [11]: > 16 µg/mL; IC50 [12]: 0.71 µg/mL (≈ 1.05 µM); IC90 [12]: > 16 µg/mL; IC50 (A549 (human lung cancer)): 1.76 µg/mL (≈ 2.6 µM); IC90 (A549 (human lung cancer)): > 16 µg/mL; IC50 [17]: 1.91 µg/mL (≈ 2.82 µM); IC90 [17]: > 16 µg/mL
4 | COC1=C[C@]23CCCN2CCc2cc4c(cc2[C@@H]3[C@@H]1OC(=O)[C@@](O)(CCCC(C)(C)O)CC(=O)N1CCCC(O)C1)OCO4 (some centres unmarked) [BS-HH-025] | > 16 µg/mL | > 16 µg/mL | > 16 µg/mL | > 16 µg/mL | > 16 µg/mL | > 16 µg/mL | 8.31 µg/mL (≈ 13.5 µM) | > 16 µg/mL | > 16 µg/mL | > 16 µg/mL | > 16 µg/mL | > 16 µg/mL | > 16 µg/mL | > 16 µg/mL | > 16 µg/mL | > 16 µg/mL | 15.3 µg/mL (≈ 25 µM) | > 16 µg/mL | > 16 µg/mL | > 16 µg/mL | IC50 [11]: > 16 µg/mL; IC90 [11]: > 16 µg/mL; IC50 [12]: > 16 µg/mL; IC90 [12]: > 16 µg/mL; IC50 (A549 (human lung cancer)): > 16 µg/mL; IC90 (A549 (human lung cancer)): > 16 µg/mL
